Source: patent US20240166652A1, “MODULATORS OF THE INTEGRATED STRESS PATHWAY” (Calico Life Sciences LLC, priority 2017, published 2024)

Test system: ATF4 luciferase reporter in HEK293T cells
Experiment: ATF4-Luc assay (ATF4 luciferase reporter, tunicamycin-treated HEK293T cells)
Format: cell-based, human
Conditions: Homo sapiens, HEK-293T; HEK293T cells carrying the ATF4 luciferase reporter, 1 μg/mL tunicamycin, 7 hours

| SMILES | EC50 [nM] |
| --- | --- |
| O=C(COc1ccc(S(F)(F)(F)(F)F)nc1)NC12CC(NC(=O)COc3ccc(Cl)c(F)c3)(C1)C2 [Compound 332, 2-(4-chloro-3-fluorophenoxy)-N-[3-(2-{[6-(pentafluoro-X 6-sulfanyl)pyridin-3-yl]oxy}acetamido)bicyclo[1.1.1]pentan-1-yl]acetamide] | 10 to 50 |
| COc1ncc(OCC(=O)NC23CCC(NC(=O)COc4ccc5c(c4)OC(F)(F)O5)(CC2)[C@@H](O)C3)cn1 [Compound 632, 2-[(2,2-difluoro-2H-1,3-benzodioxol-5-yl)oxy]-N-[(2S)-2-hydroxy-4-{2-[(2-methoxypyrimidin-5-yl)oxy]acetamido}bicyclo[2.2.2]octan-1-yl]acetamide] | 10 to 50 |
| Cc1ccc(CCOCC(=O)NC23CC(NC(=O)COc4ccc(Cl)c(Cl)c4)(C2)C3)cc1 [Compound 154, 2-(3,4-dichlorophenoxy)-N-(3-{2-[2-(4-methylphenyl)ethoxy]acetamido}-bicyclo[1.1.1]pentan-1-yl)acetamide] | 250 to 500 |
| O=C(COc1ccc(Cl)c(F)c1)NC12CCC(NC(=O)COc3ccon3)(CC1)[C@@H](O)C2 [Compound 639, 2-(4-chloro-3-fluorophenoxy)-N-[(3S)-3-hydroxy-4-{2-[(1,2-oxazol-3-yl)oxy]acetamido}bicyclo[2.2.2]octan-1-yl]acetamide] | 50 to 250 |
| O=C(COc1ccc(Cl)c(F)c1)NC12CCC(NS(=O)(=O)Cc3cccc(C(F)(F)F)c3)(CC1)[C@@H](O)C2 [Compound 430, 2-(4-chloro-3-fluorophenoxy)-N-[(3S)-3-hydroxy-4-({[3-(trifluoromethyl)phenyl]methanesulfonyl}amino)bicyclo[2.2.2]octan-1-yl]acetamide] | 500 to 2000 |
| O=C(COc1ccc(Cl)cc1)NC12CC(NC(=O)COc3cccc(Cl)c3)(C1)C2 [Compound 118, 2-(4-chlorophenoxy)-N-{3-[2-(3-chlorophenoxy)acetamido]bicyclo-[1.1.1]pentan-1-yl}acetamide] | 10 to 50 |
| O=C(COc1ccc(Cl)c(F)c1)NC12CCC(NC(=O)COc3ccc(F)c(F)c3)(CC1)[C@@H](O)C2 [Compound 587, 2-(4-chloro-3-fluorophenoxy)-N-{(3S)-4-[2-(3,4-difluorophenoxy)acetamido]-3-hydroxybicyclo[2.2.2]octan-1-yl}acetamide] | < 10 |
| O=C(COc1ccc(Cl)c(F)c1)NC12CCC(NC(=O)COc3ccnn(CC(F)(F)F)c3=O)(CC1)C(O)C2 (stereo not shown) [Compound 333, 2-(4-chloro-3-fluorophenoxy)-N-[3-hydroxy-4-(2-{[3-oxo-2-(2,2,2-trifluoroethyl)-2,3-dihydropyridazin-4-yl]oxy}acetamido)bicyclo[2.2.2]octan-1-yl]acetamide] | 250 to 500 |
| O=C(COc1ccc(Cl)c(F)c1)NC12CC(NC(=O)COc3ccc(F)cc3F)(C1)C2 [Compound 409, 2-(4-chloro-3-fluorophenoxy)-N-{3-[2-(2,4-difluorophenoxy)acetamido]bicyclo[1.1.1]pentan-1-yl}acetamide] | < 10 |
| O=C(COc1ccc(OC(F)(F)F)c(F)c1)NC12CCC(NC(=O)COc3ccc(F)c(F)c3)(CC1)[C@@H](O)C2 [Compound 763, 2-(3,4-difluorophenoxy)-N-[(2S)-4-{2-[3-fluoro-4-(trifluoromethoxy)phenoxy]acetamido}-2-hydroxybicyclo[2.2.2]octan-1-yl]acetamide] | < 10 |
| COc1ncc(OCC(=O)NC23CCC(NC(=O)COc4ccc(Cl)c(F)c4)(CC2)[C@@H](O)C3)cn1 [Compound 637, 2-(4-chloro-3-fluorophenoxy)-N-[(2S)-2-hydroxy-4-{2-[(2-methoxypyrimidin-5-yl)oxy]acetamido}bicyclo[2.2.2]octan-1-yl]acetamide] | < 10 |
| O=C(COc1ccc(Cl)c(C(=O)O)c1)NC12CCC(NC(=O)COc3ccc(Cl)c(C(=O)O)c3)(CC1)[C@@H](O)C2 [Compound 593, 3,3′-{[(2S)-2-hydroxybicyclo[2.2.2]octane-1,4-diyl]bis[azanediyl(2-oxoethane-2,1-diyl)oxy]}bis(6-chlorobenzoic acid)] | > 2000 |
| CN(C(=O)COc1ccc(Cl)c(Cl)c1)C12CC(NC(=O)COc3ccc(Cl)cc3)(C1)C2 [Compound 199, N-{3-[2-(4-chlorophenoxy)acetamido]bicyclo[1.1.1]pentan-1-yl}-2-(3,4-dichlorophenoxy)-N-methylacetamide] | 50 to 250 |
| O=C(CCCOc1cccc(Cl)c1)NC12CC(NC(=O)COc3ccc(Cl)c(F)c3)(C1)C2 [Compound 148, N-{3-[2-(4-chloro-3-fluorophenoxy)acetamido]bicyclo[1.1.1]pentan-1-yl}-4-(3-chlorophenoxy)butanamide] | 50 to 250 |
| O=C(COc1ccc(Cl)c(F)c1)NC12CCC(NC(=O)COc3ccnn(CC(F)(F)F)c3=O)(CC1)C(=O)C2 [Compound 316, 2-(4-chloro-3-fluorophenoxy)-N-[3-oxo-4-(2-{[3-oxo-2-(2,2,2-trifluoroethyl)-2,3-dihydropyridazin-4-yl]oxy}acetamido)bicyclo[2.2.2]octan-1-yl]acetamide] | 500 to 2000 |
| O=C(COc1ccc(C(F)(F)F)c(F)c1)NC12CCC(NC(=O)COc3ccc(F)cc3)(CC1)[C@@H](O)C2 [Compound 844, 2-(4-fluorophenoxy)-N-[(2S)-4-{2-[3-fluoro-4-(trifluoromethyl)phenoxy]acetamido}-2-hydroxybicyclo[2.2.2]octan-1-yl]acetamide] | < 10 |
| O=C(COc1ccnc(C(F)(F)F)c1)NC12CC(NC(=O)COc3ccc(Cl)c(F)c3)(C1)C2 [Compound 233, 2-(4-chloro-3-fluorophenoxy)-N-[3-(2-{[2-(trifluoromethyl)pyridin-4-yl]oxy}acetamido)bicyclo[1.1.1]pentan-1-yl]acetamide] | 10 to 50 |
| O=C(COc1ccc(F)c(OC(F)(F)F)c1)NC12CCC(NC(=O)COc3ccc(Cl)c(F)c3)(CC1)[C@@H](O)C2 [Compound 820, 2-(4-chloro-3-fluorophenoxy)-N-[(2S)-4-{2-[4-fluoro-3-(trifluoromethoxy)phenoxy]acetamido}-2-hydroxybicyclo[2.2.2]octan-1-yl]acetamide] | < 10 |
| O=C(COc1ccc(Cl)c(F)c1)NC12CC(NS(=O)(=O)Cc3ccc(F)c(F)c3)(C1)C2 [Compound 483, 2-(4-chloro-3-fluorophenoxy)-N-(3-{[(3,4-difluorophenyl)methanesulfonyl]amino}bicyclo[1.1.1]pentan-1-yl)acetamide] | > 2000 |
| O=C(COc1ccc(Cl)c(F)c1)NC12CC(NC(=O)COc3c(F)cc(F)cc3F)(C1)C2 [Compound 406, 2-(4-chloro-3-fluorophenoxy)-N-{3-[2-(2,4,6-trifluorophenoxy)acetamido]bicyclo[1.1.1]pentan-1-yl}acetamide] | 10 to 50 |
| Cc1noc2cc(OCC(=O)NC34CC(NC(=O)COc5ccc(Cl)c(F)c5)(C3)C4)ccc12 [Compound 110, 2-(4-chloro-3-fluorophenoxy)-N-(3-{2-[(3-methyl-1,2-benzoxazol-6-yl)oxy]acetamido}bicyclo[1.1.1]pentan-1-yl)acetamide] | 500 to 2000 |
| O=C(COc1ccc2c(c1)OC(F)(F)O2)NC12CCC(NC(=O)COc3ccc4c(c3)OC(F)(F)O4)(CC1)[C@@H](O)C2 [Compound 542, N,N′-[(2S)-2-hydroxybicyclo[2.2.2]octane-1,4-diyl]bis{2-[(2,2-difluoro-2H-1,3-benzodioxol-5-yl)oxy]acetamide}] | < 10 |
